Measured values from PMC9569420 (Communications Biology, 2022).

Legend:
p70S6Kb/RPS6KB2 = target: T1, p70S6Kb/RPS6KB2 (Homo sapiens, UniProt Q9UBS0); test: HotSpot kinase assay; assay type: biochemical; conditions: read-out: % Enzyme Activity (relative to DMSO controls)
T1 construct: purchased Reaction Biology Corporation

PKCtheta = target: T2, PKCtheta (Homo sapiens, UniProt Q04759); test: HotSpot kinase assay; assay type: biochemical; conditions: read-out: % Enzyme Activity (relative to DMSO controls)
T2 construct: purchased Reaction Biology Corporation

CDC7/DBF4 = target: T3, CDC7/DBF4 (Homo sapiens, UniProt O00311); test: HotSpot kinase assay; assay type: biochemical; conditions: read-out: % Enzyme Activity (relative to DMSO controls)
T3 construct: purchased Reaction Biology Corporation

MYLK3 = target: T4, MYLK3 (Homo sapiens, UniProt Q32MK0); test: HotSpot kinase assay; assay type: biochemical; conditions: read-out: % Enzyme Activity (relative to DMSO controls)
T4 construct: purchased Reaction Biology Corporation

HIPK2 = target: T5, HIPK2 (Homo sapiens, UniProt Q9H2X6); test: HotSpot kinase assay; assay type: biochemical; conditions: read-out: % Enzyme Activity (relative to DMSO controls)
T5 construct: purchased Reaction Biology Corporation

CDK2/cyclin A = target: T6, CDK2/cyclin A (Homo sapiens, UniProt P24941); test: HotSpot kinase assay; assay type: biochemical; conditions: read-out: % Enzyme Activity (relative to DMSO controls)
T6 construct: purchased Reaction Biology Corporation

CK1a1 = target: T7, CK1a1 (Homo sapiens, UniProt P48729); test: HotSpot kinase assay; assay type: biochemical; conditions: read-out: % Enzyme Activity (relative to DMSO controls)
T7 construct: purchased Reaction Biology Corporation

CHK2 = target: T8, CHK2 (Homo sapiens, UniProt O96017); test: HotSpot kinase assay; assay type: biochemical; conditions: read-out: % Enzyme Activity (relative to DMSO controls)
T8 construct: purchased Reaction Biology Corporation

AKT2 = target: T9, AKT2 (Homo sapiens, UniProt P31751); test: biochemical
T9 construct: purchased Reaction Biology Corporation

DYRK2 = target: T10, DYRK2 (Homo sapiens, UniProt Q92630); test: HotSpot kinase assay; assay type: biochemical; conditions: read-out: % Enzyme Activity (relative to DMSO controls)
T10 construct: purchased Reaction Biology Corporation

WNK1 = target: T11, WNK1 (Homo sapiens, UniProt Q9H4A3); test: HotSpot kinase assay; assay type: biochemical; conditions: read-out: % Enzyme Activity (relative to DMSO controls)
T11 construct: purchased Reaction Biology Corporation

HSV-2(G) = test: nuclear transport of VP-16 (immunoblot of nuclear extracts); assay type: cell-based; conditions: HaCat and primary vaginal cells, 1 h; CIMSS 10 μM, antibody 2 μg/ml
Experimental: To quantify viral entry, cells were synchronously infected by allowing virus to bind to cells at 4°C for 4 h, washed, and then transferred to 37 °C. CIMSS or control DMSO was added at the time of temperature shift. At indicated times post-temperature shift, the cells were treated with a low pH buffer to inactivate virus that had not penetrated, washed, overlaid with medium containing methyl cellulose and viral plaques were counted at 48 h. Entry was also assessed by immunoblotting nuclear extracts for VP16. […] Nuclear extracts were prepared after 1 h and analyzed by western blot with antibodies targeting VP16, histone H1 and golgin-97[5]. The non-nuclear fraction was also probed for golgin-97 as a positive control. […] After 1 or 4 h of incubation, the cells were fixed. Plasma membranes were stained using Image -IT^TM LIVE Plasma Membrane kit and nuclei were stained with DAPI (Thermo Fisher Scientific, Cat 134406). The percentage of GFP + nuclei was determined by counting ~200 cells over 3–4 fields. Images were obtained with Leica SP8 microscope (objective 63 × 1.4); xz images were captured with optical slice 0.6 µm, 25–30 slices per image.

FLT3 = target: T12, FLT3 (Homo sapiens, UniProt P36888); test: HotSpot kinase assay; assay type: biochemical; conditions: read-out: % Enzyme Activity (relative to DMSO controls)
T12 construct: purchased Reaction Biology Corporation

MYLK4 = target: T13, MYLK4 (Homo sapiens, UniProt Q86YV6); test: HotSpot kinase assay; assay type: biochemical; conditions: read-out: % Enzyme Activity (relative to DMSO controls)
T13 construct: purchased Reaction Biology Corporation

MEK3 = target: T14, MEK3 (Homo sapiens, UniProt P46734); test: HotSpot kinase assay; assay type: biochemical; conditions: read-out: % Enzyme Activity (relative to DMSO controls)
T14 construct: purchased Reaction Biology Corporation

SARS-CoV-2 (WA1/2020) = test: SARS-CoV-2 infection of Huh-7.5 cells (nucleocapsid staining); conditions: 24 and 72 h
STK32C/YANK3 = target: T15, STK32C/YANK3 (Homo sapiens, UniProt Q86UX6); test: HotSpot kinase assay; assay type: biochemical; conditions: read-out: % Enzyme Activity (relative to DMSO controls)
T15 construct: purchased Reaction Biology Corporation

Aurora A = target: T16, Aurora A (Homo sapiens, UniProt O14965); test: HotSpot kinase assay; assay type: biochemical; conditions: read-out: % Enzyme Activity (relative to DMSO controls)
T16 construct: purchased Reaction Biology Corporation

TAOK1 = target: T17, TAOK1 (Homo sapiens, UniProt Q7L7X3); test: HotSpot kinase assay; assay type: biochemical; conditions: read-out: % Enzyme Activity (relative to DMSO controls)
T17 construct: purchased Reaction Biology Corporation

RSK4 = target: T18, RSK4 (Homo sapiens, UniProt Q9UK32); test: HotSpot kinase assay; assay type: biochemical; conditions: read-out: % Enzyme Activity (relative to DMSO controls)
T18 construct: purchased Reaction Biology Corporation

MEK1 = target: T19, MEK1 (Homo sapiens, UniProt Q02750); test: HotSpot kinase assay; assay type: biochemical; conditions: read-out: % Enzyme Activity (relative to DMSO controls)
T19 construct: purchased Reaction Biology Corporation

CDK1/cyclin A = target: T20, CDK1/cyclin A (Homo sapiens, UniProt P06493); test: HotSpot kinase assay; assay type: biochemical; conditions: read-out: % Enzyme Activity (relative to DMSO controls)
T20 construct: purchased Reaction Biology Corporation

TRKB = target: T21, TRKB (Homo sapiens, UniProt Q16620); test: HotSpot kinase assay; assay type: biochemical; conditions: read-out: % Enzyme Activity (relative to DMSO controls)
T21 construct: purchased Reaction Biology Corporation

EPHA5 = target: T22, EPHA5 (Homo sapiens, UniProt P54756); test: HotSpot kinase assay; assay type: biochemical; conditions: read-out: % Enzyme Activity (relative to DMSO controls)
T22 construct: purchased Reaction Biology Corporation

PKN3/PRK3 = target: T23, PKN3/PRK3 (Homo sapiens, UniProt Q6P5Z2); test: HotSpot kinase assay; assay type: biochemical; conditions: read-out: % Enzyme Activity (relative to DMSO controls)
T23 construct: purchased Reaction Biology Corporation

[1] = tested on: Akt (pAkt T308) in HaCat cells; test: Akt phosphorylation in response to insulin (confocal); assay type: cell-based, human; conditions: insulin 10 μM, CIMSS 10 or 100 µM
ROCK2 = target: T24, ROCK2 (Homo sapiens, UniProt O75116); test: HotSpot kinase assay; assay type: biochemical; conditions: read-out: % Enzyme Activity (relative to DMSO controls)
T24 construct: purchased Reaction Biology Corporation

MARK2/PAR-1Ba = target: T25, MARK2/PAR-1Ba (Homo sapiens, UniProt Q7KZI7); test: HotSpot kinase assay; assay type: biochemical; conditions: read-out: % Enzyme Activity (relative to DMSO controls)
T25 construct: purchased Reaction Biology Corporation

FMS = target: T26, FMS (Homo sapiens, UniProt P07333); test: HotSpot kinase assay; assay type: biochemical; conditions: read-out: % Enzyme Activity (relative to DMSO controls)
T26 construct: purchased Reaction Biology Corporation

FYN = target: T27, FYN (Homo sapiens, UniProt P06241); test: HotSpot kinase assay; assay type: biochemical; conditions: read-out: % Enzyme Activity (relative to DMSO controls)
T27 construct: purchased Reaction Biology Corporation

IKKb/IKBKB = target: T28, IKKb/IKBKB (Homo sapiens, UniProt O14920); test: HotSpot kinase assay; assay type: biochemical; conditions: read-out: % Enzyme Activity (relative to DMSO controls)
T28 construct: purchased Reaction Biology Corporation

ALK4/ACVR1B = target: T29, ALK4/ACVR1B (Homo sapiens, UniProt P36896); test: HotSpot kinase assay; assay type: biochemical; conditions: read-out: % Enzyme Activity (relative to DMSO controls)
T29 construct: purchased Reaction Biology Corporation

ALK = target: T30, ALK (Homo sapiens, UniProt Q9UM73); test: HotSpot kinase assay; assay type: biochemical; conditions: read-out: % Enzyme Activity (relative to DMSO controls)
T30 construct: purchased Reaction Biology Corporation

PDGFRa = target: T31, PDGFRa (Homo sapiens, UniProt P16234); test: HotSpot kinase assay; assay type: biochemical; conditions: read-out: % Enzyme Activity (relative to DMSO controls)
T31 construct: purchased Reaction Biology Corporation

CAMK1a = target: T32, CAMK1a (Homo sapiens, UniProt Q14012); test: HotSpot kinase assay; assay type: biochemical; conditions: read-out: % Enzyme Activity (relative to DMSO controls)
T32 construct: purchased Reaction Biology Corporation

T9 sequence (P31751 whole entry): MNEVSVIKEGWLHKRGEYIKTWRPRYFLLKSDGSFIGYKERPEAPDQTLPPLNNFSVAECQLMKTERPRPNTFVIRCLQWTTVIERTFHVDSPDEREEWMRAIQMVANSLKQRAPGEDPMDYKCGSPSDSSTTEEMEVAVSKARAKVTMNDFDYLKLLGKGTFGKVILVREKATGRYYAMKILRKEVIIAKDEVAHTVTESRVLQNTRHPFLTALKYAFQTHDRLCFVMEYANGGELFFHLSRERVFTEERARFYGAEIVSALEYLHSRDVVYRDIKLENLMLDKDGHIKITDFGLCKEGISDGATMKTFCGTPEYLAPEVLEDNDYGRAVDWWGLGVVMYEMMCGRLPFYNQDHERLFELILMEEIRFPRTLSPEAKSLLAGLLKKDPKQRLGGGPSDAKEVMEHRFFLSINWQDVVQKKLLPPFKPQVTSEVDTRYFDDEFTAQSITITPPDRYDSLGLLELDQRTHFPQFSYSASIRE
T12 sequence (P36888 27-993): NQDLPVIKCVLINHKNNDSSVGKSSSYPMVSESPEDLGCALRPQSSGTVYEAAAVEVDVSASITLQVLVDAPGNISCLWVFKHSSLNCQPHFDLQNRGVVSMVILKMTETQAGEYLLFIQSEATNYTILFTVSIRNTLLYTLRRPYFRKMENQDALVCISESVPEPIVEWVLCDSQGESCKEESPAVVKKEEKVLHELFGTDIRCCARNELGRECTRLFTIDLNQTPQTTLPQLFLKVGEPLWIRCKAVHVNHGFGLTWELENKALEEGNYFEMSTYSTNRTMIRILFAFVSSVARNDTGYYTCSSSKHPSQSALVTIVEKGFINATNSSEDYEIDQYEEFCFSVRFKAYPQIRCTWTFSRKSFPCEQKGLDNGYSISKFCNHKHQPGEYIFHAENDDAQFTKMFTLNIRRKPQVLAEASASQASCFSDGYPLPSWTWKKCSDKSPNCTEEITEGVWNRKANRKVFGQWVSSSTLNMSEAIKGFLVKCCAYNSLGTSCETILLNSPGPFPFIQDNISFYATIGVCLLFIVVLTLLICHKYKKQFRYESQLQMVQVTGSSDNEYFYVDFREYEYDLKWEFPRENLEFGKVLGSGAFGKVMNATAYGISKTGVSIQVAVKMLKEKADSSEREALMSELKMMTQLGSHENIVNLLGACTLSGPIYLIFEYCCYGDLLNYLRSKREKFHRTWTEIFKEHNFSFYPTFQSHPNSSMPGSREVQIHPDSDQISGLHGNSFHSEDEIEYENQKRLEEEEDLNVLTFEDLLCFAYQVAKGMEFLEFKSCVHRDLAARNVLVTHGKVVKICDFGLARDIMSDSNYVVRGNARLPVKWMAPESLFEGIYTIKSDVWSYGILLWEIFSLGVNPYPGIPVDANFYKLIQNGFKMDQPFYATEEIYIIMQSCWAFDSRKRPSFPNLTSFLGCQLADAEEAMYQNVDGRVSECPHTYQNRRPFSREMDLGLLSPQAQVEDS
T14 sequence (P46734 whole entry): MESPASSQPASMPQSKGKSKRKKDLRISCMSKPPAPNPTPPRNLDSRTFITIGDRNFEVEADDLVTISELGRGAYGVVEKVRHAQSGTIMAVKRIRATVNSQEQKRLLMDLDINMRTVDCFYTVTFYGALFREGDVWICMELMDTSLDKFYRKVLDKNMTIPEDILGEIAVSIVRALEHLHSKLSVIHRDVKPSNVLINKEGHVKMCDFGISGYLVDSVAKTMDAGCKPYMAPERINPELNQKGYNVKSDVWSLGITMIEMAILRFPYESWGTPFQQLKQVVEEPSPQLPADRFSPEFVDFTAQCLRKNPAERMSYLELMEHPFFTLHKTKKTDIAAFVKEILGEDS
T26 sequence (P07333 20-972): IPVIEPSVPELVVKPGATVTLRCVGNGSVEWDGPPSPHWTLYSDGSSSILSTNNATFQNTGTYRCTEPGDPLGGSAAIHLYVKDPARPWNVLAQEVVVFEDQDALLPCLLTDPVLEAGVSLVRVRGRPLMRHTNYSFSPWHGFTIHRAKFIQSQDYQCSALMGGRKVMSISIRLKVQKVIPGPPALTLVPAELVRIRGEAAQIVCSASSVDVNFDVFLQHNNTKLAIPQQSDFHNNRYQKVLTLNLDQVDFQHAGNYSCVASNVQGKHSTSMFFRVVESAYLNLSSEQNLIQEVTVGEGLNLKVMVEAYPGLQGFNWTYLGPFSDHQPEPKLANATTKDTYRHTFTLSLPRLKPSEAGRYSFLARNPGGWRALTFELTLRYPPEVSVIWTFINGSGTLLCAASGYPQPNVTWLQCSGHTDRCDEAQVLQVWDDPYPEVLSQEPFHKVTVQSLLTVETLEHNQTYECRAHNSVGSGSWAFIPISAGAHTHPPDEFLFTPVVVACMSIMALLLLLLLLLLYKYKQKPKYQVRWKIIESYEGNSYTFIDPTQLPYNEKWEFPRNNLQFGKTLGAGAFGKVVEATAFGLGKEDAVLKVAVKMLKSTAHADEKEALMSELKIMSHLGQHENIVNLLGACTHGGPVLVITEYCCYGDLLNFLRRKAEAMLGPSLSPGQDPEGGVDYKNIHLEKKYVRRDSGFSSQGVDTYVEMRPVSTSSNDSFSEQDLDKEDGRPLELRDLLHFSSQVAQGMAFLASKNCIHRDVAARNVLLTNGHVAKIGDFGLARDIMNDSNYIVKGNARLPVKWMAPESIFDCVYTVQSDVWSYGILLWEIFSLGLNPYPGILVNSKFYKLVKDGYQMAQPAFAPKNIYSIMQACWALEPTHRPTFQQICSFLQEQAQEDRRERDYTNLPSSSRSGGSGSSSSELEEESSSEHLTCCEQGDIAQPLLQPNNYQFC
T4 sequence (Q32MK0 whole entry): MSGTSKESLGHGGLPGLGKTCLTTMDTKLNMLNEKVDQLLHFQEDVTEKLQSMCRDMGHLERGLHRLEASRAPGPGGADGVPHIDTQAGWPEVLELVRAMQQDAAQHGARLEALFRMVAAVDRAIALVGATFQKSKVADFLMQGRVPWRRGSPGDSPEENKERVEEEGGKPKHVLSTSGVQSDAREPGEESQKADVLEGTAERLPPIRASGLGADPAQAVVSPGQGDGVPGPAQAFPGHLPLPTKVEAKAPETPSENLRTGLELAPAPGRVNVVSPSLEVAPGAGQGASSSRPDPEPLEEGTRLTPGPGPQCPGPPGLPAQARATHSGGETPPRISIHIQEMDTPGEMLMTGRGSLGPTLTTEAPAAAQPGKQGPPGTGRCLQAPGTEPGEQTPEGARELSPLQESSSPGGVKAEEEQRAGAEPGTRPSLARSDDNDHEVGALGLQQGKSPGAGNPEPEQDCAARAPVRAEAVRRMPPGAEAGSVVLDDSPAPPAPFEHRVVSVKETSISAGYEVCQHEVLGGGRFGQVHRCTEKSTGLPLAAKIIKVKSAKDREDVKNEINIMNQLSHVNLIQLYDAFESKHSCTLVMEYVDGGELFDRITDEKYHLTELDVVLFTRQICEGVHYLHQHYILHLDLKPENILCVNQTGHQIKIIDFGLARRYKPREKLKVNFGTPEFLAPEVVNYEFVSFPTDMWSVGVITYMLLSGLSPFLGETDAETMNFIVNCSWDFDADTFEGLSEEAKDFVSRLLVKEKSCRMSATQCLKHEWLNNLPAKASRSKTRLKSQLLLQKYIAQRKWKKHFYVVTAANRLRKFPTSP
T23 sequence (Q6P5Z2 whole entry): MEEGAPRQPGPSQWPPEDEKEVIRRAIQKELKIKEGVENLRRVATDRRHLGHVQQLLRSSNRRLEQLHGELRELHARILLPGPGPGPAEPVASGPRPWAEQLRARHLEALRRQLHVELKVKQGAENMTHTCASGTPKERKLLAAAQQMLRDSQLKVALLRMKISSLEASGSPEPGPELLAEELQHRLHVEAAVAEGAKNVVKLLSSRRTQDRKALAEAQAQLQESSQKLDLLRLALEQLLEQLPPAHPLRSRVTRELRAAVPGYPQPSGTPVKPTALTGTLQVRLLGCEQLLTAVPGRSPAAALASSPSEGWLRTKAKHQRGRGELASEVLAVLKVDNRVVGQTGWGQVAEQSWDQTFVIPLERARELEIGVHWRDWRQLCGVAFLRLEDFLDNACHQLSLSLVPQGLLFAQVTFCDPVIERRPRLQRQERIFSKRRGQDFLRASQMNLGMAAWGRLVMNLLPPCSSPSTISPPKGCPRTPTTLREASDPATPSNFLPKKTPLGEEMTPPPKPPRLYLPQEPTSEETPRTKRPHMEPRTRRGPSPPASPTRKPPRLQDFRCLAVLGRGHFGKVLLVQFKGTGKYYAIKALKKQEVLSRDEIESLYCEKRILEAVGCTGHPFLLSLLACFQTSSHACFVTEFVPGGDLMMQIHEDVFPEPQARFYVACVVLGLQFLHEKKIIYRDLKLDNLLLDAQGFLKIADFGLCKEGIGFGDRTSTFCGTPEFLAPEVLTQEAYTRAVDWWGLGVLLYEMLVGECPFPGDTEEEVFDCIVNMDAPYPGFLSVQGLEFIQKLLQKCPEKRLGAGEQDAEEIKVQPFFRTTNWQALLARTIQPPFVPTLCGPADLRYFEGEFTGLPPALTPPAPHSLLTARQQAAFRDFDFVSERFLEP
T16 sequence (O14965 whole entry): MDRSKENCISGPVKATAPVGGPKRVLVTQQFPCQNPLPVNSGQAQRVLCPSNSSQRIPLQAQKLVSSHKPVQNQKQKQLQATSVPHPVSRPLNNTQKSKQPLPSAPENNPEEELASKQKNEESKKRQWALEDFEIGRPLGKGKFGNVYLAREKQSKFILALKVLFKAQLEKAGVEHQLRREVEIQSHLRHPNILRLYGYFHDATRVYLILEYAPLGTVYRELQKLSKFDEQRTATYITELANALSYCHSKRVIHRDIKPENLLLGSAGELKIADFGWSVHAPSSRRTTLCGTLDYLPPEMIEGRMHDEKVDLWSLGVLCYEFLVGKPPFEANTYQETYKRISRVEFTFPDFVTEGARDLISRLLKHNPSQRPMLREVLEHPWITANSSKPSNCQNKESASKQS

CO[C@@H]1[C@H](N(C)C(=O)CCC(=O)NCc2cn(CCCS(=O)(=O)O)nn2)C[C@H]2O[C@]1(C)n1c3ccccc3c3c4c(c5c6ccccc6n2c5c31)C(=O)NC4 [CIMSS]
remaining activity at 10 µM (p70S6Kb/RPS6KB2): 3.38%
remaining activity at 10 µM (PKCtheta): 7.08%
remaining activity at 10 µM (CDC7/DBF4): 3.98%
remaining activity at 10 µM (MYLK3): 67.6%
remaining activity at 10 µM (HIPK2): 17.5%
remaining activity at 10 µM (CDK2/cyclin A): 5.14%
remaining activity at 10 µM (CK1a1): 98.3%
remaining activity at 10 µM (CHK2): 25.4%
IC50 (AKT2; Supplementary Table 1, read-out: IC50 (Molar concentration)): 1 µM
remaining activity at 10 µM (AKT2; read-out: % Enzyme Activity (relative to DMSO controls), 10µM): 19.1%
inhibition at 10 µM (AKT2; read-out: inhibition of Akt2): > 75%
remaining activity at 10 µM (DYRK2): 9.12%
remaining activity at 10 µM (WNK1): 110%
nuclear transport of VP-16 (HSV-2(G)): inhibited
remaining activity at 10 µM (FLT3): 4.55%
remaining activity at 10 µM (MYLK4): 6.48%
remaining activity at 10 µM (MEK3): 49.3%
authentic SARS-CoV-2 (WA1/2020) infection (SARS-CoV-2 (WA1/2020)): inhibitory activity
remaining activity at 10 µM (STK32C/YANK3): 20.5%
remaining activity at 10 µM (Aurora A): 1.92%
remaining activity at 10 µM (TAOK1): 6.83%
remaining activity at 10 µM (RSK4): 6.64%
remaining activity at 10 µM (MEK1): 76.7%
remaining activity at 10 µM (CDK1/cyclin A): 21.3%
remaining activity at 10 µM (TRKB): 1.79%
remaining activity at 10 µM (EPHA5): 52.7%
remaining activity at 10 µM (PKN3/PRK3): 20.2%
block of Akt phosphorylation in response to insulin [1]: did not block
remaining activity at 10 µM (ROCK2): 12.7%
remaining activity at 10 µM (MARK2/PAR-1Ba): 2.38%
remaining activity at 10 µM (FMS): 0.52%
remaining activity at 10 µM (FYN): 2.59%
remaining activity at 10 µM (IKKb/IKBKB): 33.4%
remaining activity at 10 µM (ALK4/ACVR1B): 58.3%
remaining activity at 10 µM (ALK): 4.12%
remaining activity at 10 µM (PDGFRa): 6.05%
remaining activity at 10 µM (CAMK1a): 28.7%
